Where two headings read alike, the source gives them in different places.
Columns and labels:
[1] = Transient replicon assay, IC50 determination (firefly luciferase reporter), shuttle vector replicons with patient-derived NS3/4A; format: cell-based, HCV; conditions: Hepatitis C virus, Huh-7, 72 h, luciferase read 72 hours after addition of inhibitor, read-out: IC50 VX-950
Description: DNA sequences encoding the NS3/4A protein were generated from plasma obtained from patients infected with HCV using reverse transcription of RNA followed by PCRamplification of the reverse-transcribed product. Reverse transcription of RNA was performed using Taqman Reverse Transcription Reagents (Applied Biosystems, Foster City, Calif., USA) using the primer, 5′-ACCAGGTCCTCSGTGGAGG-3′ (SEQ ID NO:9) and according to the manufacturers' protocol. The synthesized cDNA was then PCR-amplified with the GC RICH PCR system (Roche Applied Science) to ensure high fidelity and robust yields. Annealing temperatures in the range of 50-52° C. were used depending on patient sample and primer combinations. Two PCR reactions with two independent primer sets used for the first round PCR were as follows:
Five micrograms of DNA was linearized by Sca I restriction enzyme (Roche Applied Science). After overnight digestion at 37° C., the DNA was purified using Qiagen PCR purification kit. Eight microliters of linearized DNA was used for the in vitro transcription using T7 RiboMAX Express Large Scale RNA Production System kit following manufacturer's protocol (Promega, Madison, Wis., USA). After 2 hours of incubation at 37° C., DNase treatment was performed for 20 minutes at 37° C. to remove the DNA template. In vitro transcribed RNA was then purified using RNeasy mini kit following manufacturer's protocol (Qiagen).
Cured hepatoma cell line Huh7 was obtained from R. Bartenschlager. Cells were cultured at 37° C. in a humidified atmosphere with 5% CO2 in Dulbecco's Modified Eagle Medium (DMEM) supplemented with Glutamax and […] sodium pyruvate (Cat# 10569-010). The medium was further supplemented with 10% (v/v) FBS (Cat# 16000-036) and 1% (v/v) penicillin/streptomycin (Cat# 15140-122). All reagents were from Invitrogen.
Four million cured Huh7 cells were transfected with 10 μg of in vitro transcribed RNA using electroporation. Cells were then resuspended in 12 ml of DMEM containing 5% FBS and plated in 96-well plate at 28,800 cells/well (in 90 μl final volume) Inhibitors were added 24 hours post-transfection in 3 fold dilutions at a final DMSO concentration of 1% and firefly luciferase reporter signal was read 72 hours after addition of inhibitors using the Luciferase Assay system (Promega, cat #E1501). The IC50 values were assessed as the inhibitor concentration at which a 50% reduction in the level of firefly luciferase reporter was observed as compared to the level of firefly luciferase signal without the addition of compounds. […]

[2] = test system: HCV GT-1b Con1 replicon pPI-luc/ET/SC in cured Huh7 cells; test: Transient replicon assay, IC50 determination (firefly luciferase reporter), parent replicon; format: cell-based; conditions: Hepatitis C virus, GT1B, Huh-7, luciferase read 72 hours after addition of inhibitor, read-out: IC50 VX-950

In the case of `CCC[C@H](NC(=O)[C@@H]1[C@H]2CCC[C@H]2CN1C(=O)[C@@H](NC(=O)[C@@H](NC(=O)c1cnccn1)C1CCCCC1)C(C)(C)C)C(=O)C(=O)NC1CC1` [VX-950], the IC50 ([1]; patient isolate 34) is reported as 268 nM, the IC50 ([1]; patient isolate 98) is reported as 205 nM and the IC50 ([1]; patient isolate 5903) is reported as 97 nM. The IC50 ([1]; patient isolate 34026) was 48 nM, the IC50 ([1]; patient isolate 52620) was 92 nM and the IC50 ([1]; patient isolate 61793) was 381 nM. For the same compound, the IC50 ([1]; patient isolate 66200) was 332 nM, the IC50 ([1]; patient isolate 73837-2) was 228 nM and the IC50 ([1]; patient isolate 135635) was 394 nM. It also gave an IC50 ([1]; patient isolate 135640) of 385 nM, an IC50 ([1]; patient isolate 135641) of 175 nM and an IC50 ([1]; patient isolate 135649) of 108 nM. It also gave an IC50 ([1]; patient isolate RO256) of 93 nM and an IC50 [2] of 253 nM.
